Molecules are shown by their SMILES.

Usually Ki stands for the dissociation constant of the complex between target and ligand, obtained from inhibition or displacement.

The target in this assay is PIM1 (Homo sapiens (Human), UniProt P11309). As to the kind of experiment: biochemical. It counts as biochemical. To be noted: 20 pM PIM1, 1 μM FAM-peptide, 10 μM ATP, 90 minutes at room temperature; read-out: PIM1 LC3K (KI).
Sequence of PIM1 (P11309 whole entry): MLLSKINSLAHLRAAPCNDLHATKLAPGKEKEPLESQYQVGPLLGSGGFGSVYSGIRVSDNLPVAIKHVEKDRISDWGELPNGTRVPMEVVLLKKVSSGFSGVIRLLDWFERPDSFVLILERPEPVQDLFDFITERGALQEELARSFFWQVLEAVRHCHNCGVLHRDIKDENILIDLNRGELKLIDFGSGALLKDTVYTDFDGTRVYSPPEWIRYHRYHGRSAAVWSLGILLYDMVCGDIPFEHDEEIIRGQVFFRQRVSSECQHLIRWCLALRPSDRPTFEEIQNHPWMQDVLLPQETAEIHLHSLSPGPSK
In the case of `Cn1ncc(NC(=O)c2nc(-c3c(F)cccc3F)sc2N)c1C1CC(F)(F)CC(N)CO1` (single isomer, unassigned) [Example 114, 5-amino-N-[5-(6-amino-4,4-difluoro-oxepan-2-yl)-1-methyl-pyrazol-4-yl]-2-(2,6-difluorophenyl)thiazole-4-carboxamide], the Ki worked out at 0.032 nM. Then `Cn1ncc(NC(=O)c2nc(-c3c(F)cccc3F)sc2N)c1[C@@H]1C[C@@H](F)[C@H](N)CCO1` (stereo in doubt) [Example 135, 5-amino-N-[5-(5-amino-4-fluoro-oxepan-2-yl)-1-methyl-pyrazol-4-yl]-2-(2,6-difluorophenyl)thiazole-4-carboxamide], with 0.01 nM; and `Cn1ncc(NC(=O)c2nc(-c3c(F)cccc3F)sc2N)c1[C@H]1CCC(F)[C@@H](N)CO1` (stereo in doubt) [Example 145, 5-Amino-N-[5-[6-amino-5-fluoro-oxepan-2-yl]-1-methyl-pyrazol-4-yl]-2-(2,6-difluorophenyl)thiazole-4-carboxamide], with 0.351 nM. The value for `Cn1ncc(NC(=O)c2nc(-c3c(F)cccc3F)sc2N)c1[C@@H]1CC[C@@H](CN)O1` (stereo in doubt) [Example 155, 5-Amino-N-[5-[5-(aminomethyl)tetrahydrofuran-2-yl]-1-methyl-pyrazol-4-yl]-2-(2,6-difluorophenyl)thiazole-4-carboxamide] was 0.104 nM; that for `Cn1ncc(NC(=O)c2nc(-c3c(F)cccc3F)sc2N)c1[C@H]1C[C@@H](N)CCO1` (stereo in doubt) [Example 158, 5-Amino-N-[5-[4-aminotetrahydropyran-2-yl]-1-methyl-pyrazol-4-yl]-2-(2,6-difluorophenyl)thiazole-4-carboxamide] was 0.032 nM. Then `Cn1ncc(NC(=O)c2nc(-c3ccncc3F)sc2N)c1[C@@]12CC[C@@H](N)[C@@H](CC1)O2` (stereo in doubt) [Example 161, 5-Amino-N-[5-[2-amino-8-oxabicyclo[3.2.1]octan-5-yl]-1-methyl-pyrazol-4-yl]-2-(3-fluoro-4-pyridyl)thiazole-4-carboxamide], with 0.013 nM; and `Cn1ncc(NC(=O)c2nc(-c3c(F)cccc3F)sc2N)c1[C@@H]1C[C@@H](N)[C@@H](F)CCO1` (stereo in doubt) [Example 170, 5-Amino-N-[5-[4-amino-5-fluoro-oxepan-2-yl]-1-methyl-pyrazol-4-yl]-2-(2,6-difluorophenyl)thiazole-4-carboxamide], with 0.126 nM.

Consider `C[C@H]1O[C@@H](c2c(NC(=O)c3nc(-c4c(F)cccc4F)sc3N)cnn2C)CC(F)(F)[C@@]1(C)N` (stereo in doubt) [Example 179, 5-Amino-N-[5-[5-amino-4,4-difluoro-5,6-dimethyl-tetrahydropyran-2-yl]-1-methyl-pyrazol-4-yl]-2-(2,6-difluorophenyl)thiazole-4-carboxamide], for which the inhibition constant Ki is 0.456 nM. The value for `Cn1ncc(NC(=O)c2nc(-c3c(F)cccc3F)sc2N)c1C1=CCOCC1` [Example 101, 5-amino-2-(2,6-difluorophenyl)-N-[5-(3,6-dihydro-2H-pyran-4-yl)-1-methyl-pyrazol-4-yl]thiazole-4-carboxamide] was 0.485 nM. The value for `Cn1ncc(NC(=O)c2nc(-c3c(F)cccc3F)sc2N)c1C1=CCCCO1` [Example 102, 5-amino-2-(2,6-difluorophenyl)-N-[5-(3,4-dihydro-2H-pyran-6-yl)-1-methyl-pyrazol-4-yl]thiazole-4-carboxamide] was 0.408 nM. The value for `COC1(c2c(NC(=O)c3nc(-c4c(F)cccc4F)sc3N)cnn2C)CCCCO1` (stereo not drawn) [Example 103, 5-amino-2-(2,6-difluorophenyl)-N-[5-(2-methoxytetrahydropyran-2-yl)-1-methyl-pyrazol-4-yl]thiazole-4-carboxamide] was 0.209 nM; that for `Cn1ncc(NC(=O)c2nc(-c3c(F)cccc3F)sc2N)c1C1CCCCO1` (stereo not drawn) [Example 104, 5-amino-2-(2,6-difluorophenyl)-N-(1-methyl-5-tetrahydropyran-2-yl-pyrazol-4-yl)thiazole-4-carboxamide] was 0.424 nM; that for `COC1(c2c(NC(=O)c3nc(-c4ncccc4F)sc3N)cnn2C)CCCCO1` (stereo not drawn) [Example 105, 5-amino-2-(3-fluoro-2-pyridyl)-N-[5-(2-methoxytetrahydropyran-2-yl)-1-methyl-pyrazol-4-yl]thiazole-4-carboxamide] was 0.118 nM. Consider `Cn1ncc(NC(=O)c2nc(-c3c(F)cccc3F)sc2N)c1[C@]12CC[C@H](O1)[C@@H](O)CC2` [Example 106, 5-amino-2-(2,6-difluorophenyl)-N-(5-((1S,4S,5S)-4-hydroxy-8-oxabicyclo[3.2.1]octan-1-yl)-1-methyl-1H-pyrazol-4-yl)thiazole-4-carboxamide], for which the Ki was determined as 0.032 nM. The value for `C[C@@H]1CC(O)CC[C@H](c2c(NC(=O)c3nc(-c4c(F)cccc4F)sc3N)cnn2C)O1` (stereo partly drawn) [Example 108, 5-amino-2-(2,6-difluorophenyl)-N-(5-((2R,7R)-5-hydroxy-7-methyloxepan-2-yl)-1-methyl-1H-pyrazol-4-yl)thiazole-4-carboxamide] was 0.049 nM. Then `Cn1ncc(NC(=O)c2nc(-c3c(F)cccc3F)sc2N)c1C1CC[C@@H](O)[C@@H](O)CO1` (stereo partly drawn) [Example 111, 5-amino-2-(2,6-difluorophenyl)-N-(5-((5R,6S)-5,6-dihydroxyoxepan-2-yl)-1-methyl-1H-pyrazol-4-yl)thiazole-4-carboxamide], with 0.425 nM; and `C[C@@H]1CC(N)CC[C@H](c2c(NC(=O)c3nc(-c4c(F)cccc4F)sc3N)cnn2C)O1` (stereo partly drawn) [Example 113, 5-amino-N-(5-((2R,7R)-5-amino-7-methyloxepan-2-yl)-1-methyl-1H-pyrazol-4-yl)-2-(2,6-difluorophenyl)thiazole-4-carboxamide], with 0.019 nM; and `Cn1ncc(NC(=O)c2nc(-c3c(F)cccc3F)sc2N)c1C1CC[C@@H](N)[C@@H](F)CO1` (stereo partly drawn) [Example 119, 5-amino-N-(5-((5R,6R)-5-amino-6-fluorooxepan-2-yl)-1-methyl-1H-pyrazol-4-yl)-2-(2,6-difluorophenyl)thiazole-4-carboxamide], with 0.021 nM.

Consider `C[C@@H]1C[C@H](N)CC[C@H](c2c(NC(=O)c3nc(-c4c(F)cccc4F)sc3N)cnn2C)O1` [Example 120, 5-amino-N-(5-((2R,5R,7R)-5-amino-7-methyloxepan-2-yl)-1-methyl-1H-pyrazol-4-yl)-2-(2,6-difluorophenyl)thiazole-4-carboxamide], for which the Ki amounted to 0.081 nM. The value for `Cn1ncc(NC(=O)c2nc(-c3c(F)cccc3F)sc2N)c1C1CC(F)(F)CC(N)CO1` (stereo not drawn) [Example 122, 5-amino-N-[5-(6-amino-4,4-difluoro-oxepan-2-yl)-1-methyl-pyrazol-4-yl]-2-(2,6-difluorophenyl)thiazole-4-carboxamide] was 0.014 nM. Regarding `CO[C@H]1CCC(c2c(NC(=O)c3nc(-c4c(F)cccc4F)sc3N)cnn2C)OC[C@@H]1N` (stereo partly drawn) [Example 123, 5-amino-N-(5-((5S,6S)-6-amino-5-methoxyoxepan-2-yl)-1-methyl-1H-pyrazol-4-yl)-2-(2,6-difluorophenyl)thiazole-4-carboxamide], the inhibition constant (Ki) worked out at 0.125 nM. Then `Cn1ncc(NC(=O)c2nc(-c3c(F)cccc3F)sc2N)c1C1CCC(N)C(F)CO1` (stereo not drawn) [Example 124, 5-amino-N-[5-(5-amino-6-fluoro-oxepan-2-yl)-1-methyl-pyrazol-4-yl]-2-(2,6-difluorophenyl)thiazole-4-carboxamide], with 0.015 nM; and `CC[C@@H]1C[C@H](N)CC[C@H](c2c(NC(=O)c3nc(-c4c(F)cccc4F)sc3N)cnn2C)O1` [Example 125, 5-amino-N-(5-((2R,7R)-5-amino-7-ethyloxepan-2-yl)-1-methyl-1H-pyrazol-4-yl)-2-(2,6-difluorophenyl)thiazole-4-carboxamide], with 3.5 nM.

Regarding `Cn1ncc(NC(=O)c2nc(-c3c(F)cccc3F)sc2N)c1C1C[C@@H](N)[C@H](F)CCO1` (stereo partly drawn) [Example 127, 5-amino-N-(5-((4R,5R)-4-amino-5-fluorooxepan-2-yl)-1-methyl-1H-pyrazol-4-yl)-2-(2,6-difluorophenyl)thiazole-4-carboxamide], the inhibition constant (Ki) stood at 0.112 nM. Then `CO[C@H]1COC(c2c(NC(=O)c3nc(-c4c(F)cccc4F)sc3N)cnn2C)CC[C@@H]1N` (stereo partly drawn) [Example 128, 5-amino-N-(5-((5S,6R)-5-amino-6-methoxyoxepan-2-yl)-1-methyl-1H-pyrazol-4-yl)-2-(2,6-difluorophenyl)thiazole-4-carboxamide], with 0.476 nM; and `Cn1ncc(NC(=O)c2nc(-c3c(F)cccc3F)sc2N)c1C1C[C@H](N)[C@@H](F)CCO1` (stereo partly drawn) [Example 130, 5-amino-N-(5-((4S,5S)-4-amino-5-fluorooxepan-2-yl)-1-methyl-1H-pyrazol-4-yl)-2-(2,6-difluorophenyl)thiazole-4-carboxamide], with 0.358 nM; and `Cn1ncc(NC(=O)c2nc(-c3c(F)cccc3F)sc2N)c1C1CC(F)(F)CC(N)CO1` (stereo not drawn) [Example 132, 5-amino-N-[5-(6-amino-4,4-difluoro-oxepan-2-yl)-1-methyl-pyrazol-4-yl]-2-(2,6-difluorophenyl)thiazole-4-carboxamide], with 0.014 nM. The value for `Cn1ncc(NC(=O)c2nc(-c3c(F)cccc3F)sc2N)c1C1CC(F)(F)CC(N)CO1` (stereo not drawn) [Example 133, 5-amino-N-[5-(6-amino-4,4-difluoro-oxepan-2-yl)-1-methyl-pyrazol-4-yl]-2-(2,6-difluorophenyl)thiazole-4-carboxamide] was 0.076 nM; that for `Cn1ncc(NC(=O)c2nc(-c3c(F)cccc3F)sc2N)c1C1CCC(O)CCO1` (stereo not drawn) [Example 134, 5-amino-2-(2,6-difluorophenyl)-N-[5-(5-hydroxyoxepan-2-yl)-1-methyl-pyrazol-4-yl]thiazole-4-carboxamide] was 0.054 nM; that for `CO[C@@H]1C[C@@H](c2c(NC(=O)c3nc(-c4c(F)cccc4F)sc3N)cnn2C)OCC[C@H]1N` [Example 136, 5-amino-N-(5-((2S,4R,5R)-5-amino-4-methoxyoxepan-2-yl)-1-methyl-1H-pyrazol-4-yl)-2-(2,6-difluorophenyl)thiazole-4-carboxamide] was 0.057 nM.

For the origin of these results see patent US9328106B2, “Cyclic ether pyrazol-4-yl-heterocyclyl-carboxamide compounds and methods of use” (Genentech, Inc., priority 2012, dated 2016).
